In patent US10118935B2, “Melampomagnolide B dimers” (priority 2014, dated 2018):

Experiments:
[1] = system: MOLT-4; test: NCI 60 cell line five dose, Leukemia
[2] = system: HL-60(TB); details: for CC50: read-out: LC50
[3] = system: HOP-92; test: NCI 60 cell line five dose, Non-Small Cell Lung Cancer
[4] = system: NCI-H322M; test: as above
[5] = system: M9ENL AML cell lines
[6] = system: T-47D; test: NCI 60 cell line five dose, Breast Cancer
[7] = system: SF-268; test: NCI 60 cell line five dose, CNS Cancer
[8] = system: SR; test: NCI 60 cell line five dose, Leukemia
[9] = system: SK-MEL-2; test: NCI 60 cell line five dose, Melanoma
[10] = system: OVCAR-8; test: NCI 60 cell line five dose, Ovarian Cancer
[11] = system: NCI-H322M
[12] = system: NCI-H460; test: NCI 60 cell line five dose, Non-Small Cell Lung Cancer
[13] = system: UO-31; test: NCI 60 cell line five dose, Renal Cancer
[14] = system: NCI-H226; test: NCI 60 cell line five dose, Non-Small Cell Lung Cancer
[15] = system: KM12; test: NCI 60 cell line five dose, Colon Cancer
[16] = system: panel of 60 human cancer cell lines; test: Five-dose growth inhibition, panel; type: cell-based
[17] = system: OVCAR-4; test: NCI 60 cell line five dose, Ovarian Cancer
[18] = system: TK-10; test: NCI 60 cell line five dose, Renal Cancer
[19] = system: U251; test: NCI 60 cell line five dose, CNS Cancer
[20] = system: M14; test: NCI 60 cell line five dose, Melanoma
[21] = system: HCC-2998; test: NCI 60 cell line five dose, Colon Cancer
[22] = system: K-562; test: NCI 60 cell line five dose, Leukemia
[23] = system: NCI-H23; test: NCI 60 cell line five dose, Non-Small Cell Lung Cancer
[24] = system: OVCAR-3; test: NCI 60 cell line five dose, Ovarian Cancer

For `C=C1C(=O)O[C@H]2[C@H]1CC/C(COC(=O)CCC(=O)NCCCCCCCCCNC(=O)CCC(=O)OC/C1=C/CC[C@@]3(C)O[C@H]3[C@H]3OC(=O)C(=C)[C@@H]3CC1)=C\CC[C@@]1(C)O[C@@H]21` [JVM 2-92, bis(((1aR,7aS,10aS,10bS,E)-1a-Methyl-8-methylene-9-oxo-1a,2,3,6,7,7a,8,9,10a,10b-decahydrooxireno[2′,3′:9,10]cyclodeca[1,2-b]furan-5-yl)methyl)4,4′-(nonane-1,9-diylbis(azanediyl))bis (4-oxobutanoate)], the GI50 [1] was 0.64 µM, the TGI [1] was 4.20 µM and the GI50 [2] was 0.44 µM. The TGI [2] was 2.13 µM, the CC50 [2] was > 100 µM and the GI50 [3] was 1.4 µM. The TGI [3] was 3.05 µM, the GI50 [4] was 16.3 µM and the TGI [4] was 31.6 µM. The “result compared to parthenolide” value ([5]; 10 μM, M9ENL cell line, FIG. 4) was “promising result”, the GI50 [6] was 1.49 µM and the TGI [6] was 4.48 µM. It also gave a GI50 [7] of 2.92 µM, a TGI [7] of 10.1 µM and a GI50 [8] of 0.33 µM. The TGI [8] was 1.17 µM, the GI50 [9] was 2.12 µM and the TGI [9] was 4.15 µM. The GI50 [10] was 3.24 µM, the TGI [10] was 16.5 µM and the CC50 [11] was 61.3 µM. For the same compound, the GI50 [12] was 2.18 µM, the TGI [12] was 5.17 µM and the GI50 [13] was 3.9 µM. The TGI [13] was 16.1 µM, the GI50 [14] was 1.9 µM and the TGI [14] was 4.05 µM. The GI50 [15] was 4.6 µM, the TGI [15] was 17.1 µM and the growth inhibition ([16]; NCI-H522, SW-620, LOX IMVI, MCF7, BT-549, MDA-MB-468) was “nano-molar range”. For the same compound, the growth inhibition ([16]; all hematological leukemia cell lines) was “nanomolar range”, the GI50 [17] was 1.48 µM and the TGI [17] was 3.46 µM. It also gave a GI50 [18] of 1.78 µM, a TGI [18] of 3.28 µM and a GI50 [19] of 3.01 µM. The TGI [19] was 9.25 µM, the GI50 [20] was 1.65 µM and the TGI [20] was 3.64 µM. The GI50 [21] was 2.25 µM, the TGI [21] was 4.70 µM and the GI50 [22] was 0.45 µM. It also gave a TGI [22] of 3.21 µM, a GI50 [23] of 2.23 µM and a TGI [23] of 5.13 µM. For the same compound, the GI50 [24] was 1.29 µM and the TGI [24] was 2.61 µM.
With `C=C1C(=O)O[C@H]2[C@H]1CC/C(COC(=O)NCCCCCNC(=O)OC/C1=C/CC[C@@]3(C)O[C@H]3[C@H]3OC(=O)C(=C)[C@@H]3CC1)=C\CC[C@@]1(C)O[C@@H]21` [JVM 2-76, bis(((1aR,7aS,10aS,10bS,E)-1a-Methyl-8-methylene-9-oxo-1a,2,3,6,7,7a,8,9,10a,10b-decahydrooxireno[2′,3′:9,10]cyclodeca[1,2-b]furan-5-yl)methyl)pentane-1,5-diyldicarbamate] the GI50 [1] was 1.48 µM, the TGI [1] was 9.29 µM and the CC50 ([1]; read-out: LC50) was > 100 µM. The GI50 [2] was 0.31 µM, the TGI [2] was 1.71 µM and the CC50 [2] was > 100 µM. For the same compound, the GI50 [3] was 1.3 µM, the TGI [3] was 3.35 µM and the CC50 ([3]; read-out: LC50) was 8.61 µM. The GI50 [4] was 16.4 µM, the TGI [4] was 41.6 µM and the CC50 ([5]; read-out: LC50, M9ENL AML cell lines, after 24 hours of drug exposure) was 1.35 µM. For the same compound, the GI50 [6] was 1.6 µM, the TGI [6] was 5.73 µM and the CC50 ([6]; read-out: LC50) was > 100 µM. For the same compound, the GI50 [7] was 3.08 µM, the TGI [7] was 12.0 µM and the CC50 ([7]; read-out: LC50) was 42.3 µM. For the same compound, the GI50 [8] was 0.38 µM, the TGI [8] was 2.30 µM and the CC50 ([8]; read-out: LC50) was > 100 µM. The GI50 [9] was 2.01 µM, the TGI [9] was 3.96 µM and the CC50 ([9]; read-out: LC50) was 7.81 µM. For the same compound, the GI50 [10] was 3.27 µM, the TGI [10] was 13.7 µM and the CC50 ([10]; read-out: LC50) was 61 µM. For the same compound, the CC50 [11] was > 100 µM, the GI50 [12] was 4.34 µM and the TGI [12] was 16.2 µM. The CC50 ([12]; read-out: LC50) was 50.7 µM, the GI50 [13] was 8.9 µM and the TGI [13] was 22.5 µM. The CC50 ([13]; read-out: LC50) was 52.3 µM, the GI50 [14] was 2.56 µM and the TGI [14] was 8.18 µM. For the same compound, the CC50 ([14]; read-out: LC50) was 30.9 µM, the GI50 [15] was 6.53 µM and the TGI [15] was 21.0 µM. The CC50 ([15]; read-out: LC50) was 54.2 µM, the “growth inhibition (GI50)” value ([16]; CCRF-CEM, HL-60 (TB), K-562, RPMI-8226, SR, NCI-H522, COLO 205, HCT-116, HT29, SW-620, LOX IMVI, OVCAR-3, RXF 393, MCF7) was “nano-molar range” and the GI50 values ([16]; remaining human cancer cell lines) was “low micromolar range”. The GI50 [17] was 2.72 µM, the TGI [17] was 15.2 µM and the CC50 ([17]; read-out: LC50) was 41.9 µM. The GI50 [18] was 1.82 µM, the TGI [18] was 4.40 µM and the CC50 ([18]; read-out: LC50) was 11.8 µM. It also gave a GI50 [19] of 3.51 µM, a TGI [19] of 13.7 µM and a CC50 ([19]; read-out: LC50) of 51.5 µM. For the same compound, the GI50 [20] was 1.71 µM, the TGI [20] was 3.74 µM and the CC50 ([20]; read-out: LC50) was 8.2 µM. The GI50 [21] was 6.71 µM, the TGI [21] was 20.7 µM and the CC50 ([21]; read-out: LC50) was 53.9 µM. The GI50 [22] was 0.56 µM, the TGI [22] was 16.1 µM and the CC50 ([22]; read-out: LC50) was > 100 µM. For the same compound, the GI50 [23] was 2.66 µM, the TGI [23] was 7.71 µM and the CC50 ([23]; read-out: LC50) was 45.5 µM. It also gave a GI50 [24] of 0.76 µM, a TGI [24] of 2.13 µM and a CC50 ([24]; read-out: LC50) of 5.07 µM.
